# According to patent US6737383B1, “Herbicidal oxadiazolidines” (priority 1999, dated 2004):
# Tests used:
# bedstraw = experiment: Test B pre/postemergence bedstraw; assay type: in vivo, Galium aparine; details: Postemergence
# In short: (§1)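 Herbicidal effect was estimated by eye on a ten-point control scale after plants spent twelve to sixteen days in a greenhouse following soil or foliar treatment. Foliar sprays targeted plants at one to four leaves; all doses were formulated in a non-phytotoxic solvent with surfactant.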
# blackgrass = experiment: Test B pre/postemergence blackgrass; assay type: in vivo, Alopecurus myosuroides
# In short: as §1
# surinam grass = experiment: Test B pre/postemergence surinam grass; assay type: in vivo, Brachiaria decumbens
# In short: as §1
# cocklebur = experiment: Test B pre/postemergence cocklebur; assay type: in vivo, Xanthium strumarium
# In short: as §1
# corn = experiment: Test B pre/postemergence corn; assay type: in vivo, Zea mays
# In short: as §1
# crabgrass = experiment: Test B pre/postemergence crabgrass; assay type: in vivo, Digitaria sanguinalis
# In short: as §1
# giant foxtail = experiment: Test B pre/postemergence giant foxtail; assay type: in vivo, Setaria faberii
# In short: as §1
# morningglory = experiment: Test B pre/postemergence morningglory; assay type: in vivo, Ipomoea hederacea
# In short: as §1
# pigweed = experiment: Test B pre/postemergence pigweed; assay type: in vivo, Amaranthus retroflexus
# In short: as §1
# [1] = Postemergence, Rate 250 g/ha, scale 0 to 10, 0 is no effect, 10 is complete control
# [2] = Postemergence, Rate 500 g/ha, scale of 0 to 10 where 0 is no effect and 10 is complete control
# [3] = Preemergence, Rate 62 g/ha, scale 0 to 10 (0 no effect, 10 complete control)
# [4] = Preemergence, Rate 125 g/ha, scale of 0 to 10 where 0 is no effect and 10 is complete control
# [5] = Preemergence, Rate 250 g/ha, scale of 0 to 10 where 0 is no effect and 10 is complete control
# [6] = Preemergence, Rate 500 g/ha, scale 0 to 10, 0 is no effect, 10 is complete control
# [7] = Postemergence, Rate 125 g/ha, scale 0 to 10, 0 is no effect, 10 is complete control
# [8] = Rate 62 g/ha, Postemergence, scale of 0 to 10 where 0 is no effect and 10 is complete control
# [9] = Preemergence, Rate 250 g/ha, scale 0 to 10, 0 is no effect, 10 is complete control
smiles,measurement,setting,value
CC(C)N(C(=O)n1oc(=O)n(C(C)CCl)c1=O)c1ccccc1 (stereo not shown) [Compound 411],"Plant response rating, Bedstraw","bedstraw; Rate 250 g/ha, scale 0 to 10, 0 is no effect, 10 is complete control",7
same,Bedstraw plant response rating,"bedstraw; Rate 500 g/ha, scale of 0 to 10 where 0 is no effect and 10 is complete control",8
same,"Plant response rating, Blackgrass",blackgrass; [1],9
same,Blackgrass plant response rating,blackgrass; [2],9
same,"Plant response rating, Blackgrass",blackgrass; [3],6
same,"Plant response rating, Blackgrass",blackgrass; [4],7
same,Blackgrass plant response rating,blackgrass; [5],9
same,Blackgrass plant response rating,blackgrass; [6],10
same,"Plant response rating, B. signalgrass",surinam grass; [7],3
same,"Plant response rating, B. signalgrass",surinam grass; [1],5
same,B. signalgrass plant response rating,surinam grass; [2],9
same,"Plant response rating, B. signalgrass",surinam grass; [3],0
same,"Plant response rating, B. signalgrass",surinam grass; [4],3
same,B. signalgrass plant response rating,surinam grass; [5],7
same,B. signalgrass plant response rating,"surinam grass; Preemergence, Rate 500 g/ha, scale of 0 to 10 where 0 is no effect and 10 is complete control",10
same,B. signalgrass plant response rating,surinam grass; [8],0
same,"Plant response rating, Cocklebur",cocklebur; [7],1
same,"Plant response rating, Cocklebur",cocklebur; [1],3
same,Cocklebur plant response rating,cocklebur; [2],3
same,"Plant response rating, Cocklebur",cocklebur; [3],0
same,"Plant response rating, Cocklebur",cocklebur; [4],0
same,Cocklebur plant response rating,cocklebur; [9],0
same,Cocklebur plant response rating,cocklebur; [6],0
same,Cocklebur plant response rating,cocklebur; [8],1
same,"Plant response rating, Corn",corn; [7],0
same,"Plant response rating, Corn",corn; [1],0
same,Corn plant response rating,corn; [2],4
same,"Plant response rating, Corn",corn; [3],0
same,"Plant response rating, Corn",corn; [4],2
same,Corn plant response rating,corn; [9],8
same,Corn plant response rating,corn; [6],9
same,Corn plant response rating,corn; [8],0
same,"Plant response rating, Crabgrass",crabgrass; [7],4
same,"Plant response rating, Crabgrass",crabgrass; [1],8
same,Crabgrass plant response rating,crabgrass; [2],8
same,"Plant response rating, Crabgrass",crabgrass; [3],9
same,"Plant response rating, Crabgrass",crabgrass; [4],10
same,Crabgrass plant response rating,crabgrass; [9],10
same,Crabgrass plant response rating,crabgrass; [6],10
same,Crabgrass plant response rating,crabgrass; [8],4
same,"Plant response rating, Giant foxtail",giant foxtail; [7],9
same,"Plant response rating, Giant foxtail",giant foxtail; [1],9
same,Giant foxtail plant response rating,giant foxtail; [2],9
same,"Plant response rating, Giant foxtail",giant foxtail; [3],10
same,"Plant response rating, Giant foxtail",giant foxtail; [4],10
same,Giant foxtail plant response rating,giant foxtail; [9],10
same,Giant foxtail plant response rating,giant foxtail; [6],10
same,Giant foxtail plant response rating,giant foxtail; [8],6
same,"Plant response rating, Morningglory",morningglory; [1],6
same,Morningglory plant response rating,morningglory; [2],6
same,"Plant response rating, Morningglory",morningglory; [3],0
same,"Plant response rating, Morningglory",morningglory; [4],1
same,Morningglory plant response rating,morningglory; [9],2
same,Morningglory plant response rating,morningglory; [6],4
same,"Plant response rating, Redroot pigweed",pigweed; [1],7
same,Redroot pigweed plant response rating,pigweed; [2],9
same,"Plant response rating, Redroot pigweed",pigweed; [3],3
same,"Plant response rating, Redroot pigweed",pigweed; [4],8
